“And” between values parts separate entries of the source, which are not always exact repeats. Identical values can stand only once.
Test system: 699152-130-R-J1-PDC complex spheroid growth
Assay: Anticancer human tumor 699152-130-R-J1-PDC patient-derived pancreatic carcinoma cell line growth inhibition [AhR]
Conditions: for viability, T/C: stronger effect = lower value
Source text: Multicellular complex tumor spheroid response to aryl hydrocarbon receptor antagonists in combination with a variety of drugs and investigational agents in selected tumor cell lines
The current study was undertaken to assess response to aryl hydrocarbon receptor antagonists in combination with standard-of-care drugs and investigational agents in solid tumor complex spheroid models. Complex spheroids include a stromal component modeled by human endothelial cells (HUVEC) and fibroblasts modeled by human mesenchymal stem cells (MSCs). The concentration ranges selected for each drug and investigational agent were based upon clinically achievable concentrations if the clinical Cmax of the agent was known.
Compounds. The drugs and investigational agents: BAY 2416964 (NSC825713), GNF351 (NSC835774), CH-223191 (NSC835775), CPI-455 (NSC825282), aza-TdCyd (NSC777586), decitabine (NSC127716), belinostat (NSC758774), entinostat (NSC756642), pevonedistat (NSC761192), tazemetostat (NSC777109), talazoparib (NSC765396), olaparib (NSC753686), selinexor (NSC780203), nedisertib (M3814, NSC802822), bortezomib (NSC756655), venetoclax (NSC766270), doxorubicin (NSC123127), elimusertib (BAY189344, NSC800525), ceralasertib (AZD6738, NSC777638), TAK-243 (NSC785004), alisertib (NSC759677), etoposide (NSC141540), topotecan (NSC609699), eribulin (NSC707389), gemcitabine (NSC613327), carboplatin (NSC241240), cisplatin (NSC119875), and SN-38 (NSC673596) were obtained from the National Cancer Institute (NCI) Developmental Therapeutics Program Chemical Repository (32). The FDA-approved anticancer drug set is available from the Developmental Therapeutics Program at https://dtp.cancer.gov/organization/dscb/obtaining/available plates.htm. […] The stock solutions were prepared in dimethyl sulfoxide (DMSO, Sigma-Aldrich, St. Louis, MO, cat. D2650), except for the platinum compounds which were prepared in saline (Quality Biological, Gaithersburg, MD, cat. 114-055-101), at 800-fold the tested concentration and stored at -70 degrees C prior to their use. All drugs and investigational agents were tested over a range starting from a high concentration at or near the clinical Cmax and decreasing in half-log increments. If the clinical Cmax for an agent had not been determined, the highest concentration tested was 10 microM (Table 1).
Cell Culture. All cells were maintained in an incubator at 37 degrees C and 5% CO2 with 95% humidity. The PDC lines were cultured according to standard operating procedures established by the NCI PDMR (https://pdmr.cancer.gov). Briefly, all PDCs were thawed and cultured in Matrigel-coated flasks prepared with a working solution of 1X Ham's F-12 nutrient mix, without supplementation (Invitrogen, Waltham, MA, cat. 11765054), 100 U/mL penicillin-streptomycin (Invitrogen, cat. 15140122), and 2.5% Matrigel (Corning Inc., Corning, NY, cat. 354248) for the first three passages. All PDCs were cultured in complete DMEM/F-12 media containing advanced DMEM/F-12 (Invitrogen, cat. 12634028), 4.9% defined fetal bovine serum, heat inactivated (HyClone Laboratories Inc., Logan, UT, cat. SH30070.03HI), 389 ng/mL hydrocortisone (Sigma-Aldrich, cat. H4001), 9.7 ng/mL human EGF recombinant protein (Invitrogen, cat. PHG0313), 23.4 microg/mL adenine (Sigma-Aldrich, cat. A2786), 97.3 U/mL penicillin-streptomycin (Invitrogen, cat. 15140122), 1.9 mM L-glutamine (Invitrogen, cat. 25030081), and 9.7 microM Y-27632 dihydrochloride (Tocris Bioscience, Bristol, United Kingdom, cat. 1254). The PDCs were cultured in complete DMEM/F12 media without 10 microM Y-27632 dihydrochloride for at least two passages prior to the screen. The established cell lines NCI-H1341 and […] were cultured in DMEM/F-12, HEPES (Invitrogen, cat. 11330032), 5% defined fetal bovine serum (HyClone Laboratories Inc., cat. SH30070.03), ITS premix universal culture supplement [insulin (5 microg/mL), transferrin (5 microg/mL), and selenious acid (5 ng/mL)] […]

[1] = curve of first compound, second compound 0.1 µM
[2] = curve of first compound, second compound 0.316 µM
[3] = curve of first compound, second compound 1 µM
[4] = curve of first compound, second compound 3.16 µM
[5] = curve of first compound, second compound 10 µM
[6] = second compound 0.1 µM, first compound 0.0316 µM
[7] = second compound 0.1 µM, first compound 0.1 µM
[8] = second compound 0.1 µM, first compound 0.316 µM
[9] = second compound 0.1 µM, first compound 1 µM
[10] = second compound 0.1 µM, first compound 3.16 µM
[11] = second compound 0.1 µM, first compound 10 µM
[12] = second compound 0.316 µM, first compound 0.0316 µM
[13] = second compound 0.316 µM, first compound 0.1 µM
[14] = second compound 0.316 µM, first compound 0.316 µM
[15] = second compound 0.316 µM, first compound 1 µM
[16] = second compound 0.316 µM, first compound 3.16 µM
[17] = second compound 0.316 µM, first compound 10 µM
[18] = second compound 1 µM, first compound 0.0316 µM
[19] = second compound 1 µM, first compound 0.1 µM
[20] = second compound 1 µM, first compound 0.316 µM
[21] = second compound 1 µM, first compound 1 µM
[22] = second compound 1 µM, first compound 3.16 µM
[23] = second compound 1 µM, first compound 10 µM
[24] = second compound 3.16 µM, first compound 0.0316 µM
[25] = second compound 3.16 µM, first compound 0.1 µM
[26] = second compound 3.16 µM, first compound 0.316 µM
[27] = second compound 3.16 µM, first compound 1 µM
[28] = second compound 3.16 µM, first compound 3.16 µM
[29] = second compound 3.16 µM, first compound 10 µM
[30] = second compound 10 µM, first compound 0.0316 µM
[31] = second compound 10 µM, first compound 0.1 µM
[32] = second compound 10 µM, first compound 0.316 µM
[33] = second compound 10 µM, first compound 1 µM
[34] = second compound 10 µM, first compound 3.16 µM
[35] = second compound 10 µM, first compound 10 µM
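Also: compound exposure lasted 7 days after spheroids had grown for 3 days.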

SMILES | IC50 [1] [µM] | IC50 [2] [µM] | IC50 [3] [µM] | IC50 [4] [µM] | IC50 [5] [µM] | viability, T/C [6] [%] | viability, T/C [7] [%] | viability, T/C [8] [%] | viability, T/C [9] [%] | viability, T/C [10] [%] | viability, T/C [11] [%] | viability, T/C [12] [%] | viability, T/C [13] [%] | viability, T/C [14] [%] | viability, T/C [15] [%] | viability, T/C [16] [%] | viability, T/C [17] [%] | viability, T/C [18] [%] | viability, T/C [19] [%] | viability, T/C [20] [%] | also measured
COc1cc(C2c3cc4c(cc3C(OC3OC5COC(C)OC5C(O)C3O)C3COC(=O)C23)OCO4)cc(OC)c1O (configuration not stated) + Cc1ccccc1N=Nc1ccc(NC(=O)c2ccnn2C)c(C)c1 | > 10 | 4.1 | > 10 | 7.2 | > 10 | 96.8 | 117 | 74.5 | 62.5 | 48.2 | 48.2 | 95.9 | 88.8 | 66.2 | 62.1 | 53.6 | 43.4 | 104 | 106 | 81 | viability, T/C [21]: 62.1%; viability, T/C [22]: 60.6%; viability, T/C [23]: 50.5%; viability, T/C [24]: 108%; viability, T/C [25]: 89.4%; viability, T/C [26]: 65.4%; viability, T/C [27]: 62.5%; viability, T/C [28]: 54.4%; viability, T/C [29]: 47.3%; viability, T/C [30]: 106%; viability, T/C [31]: 88.7%; viability, T/C [32]: 55%; viability, T/C [33]: 65.1%; viability, T/C [34]: 65.1%; viability, T/C [35]: 57.1%
CC(C)c1c(-c2ccccc2)nc2c(C#N)c[nH]n2c1=O + Cc1ccccc1N=Nc1ccc(NC(=O)c2ccnn2C)c(C)c1 | > 10 | > 10 | > 10 | > 10 | > 10 | 104 | 81.7 | 89.5 | 86.4 | 79.6 | 92.1 | 94.6 | 86.2 | 82.6 | 82.5 | 84.6 | 84.6 | 83.3 | 93 | 87.7 | viability, T/C [21]: 99.1%; viability, T/C [22]: 86.7%; viability, T/C [23]: 90.8%; viability, T/C [24]: 96%; viability, T/C [25]: 102%; viability, T/C [26]: 103%; viability, T/C [27]: 82.5%; viability, T/C [28]: 98.8%; viability, T/C [29]: 93.5%; viability, T/C [30]: 99.7%; viability, T/C [31]: 96.6%; viability, T/C [32]: 103%; viability, T/C [33]: 102%; viability, T/C [34]: 106%; viability, T/C [35]: 103%
Nc1ncn(C2CC(O)C(CO)S2)c(=O)n1 (configuration not stated) |  |  |  |  |  |  |  |  |  |  |  |  |  |  |  |  |  |  |  |  | viability, T/C (compound 0.000949 µM): 98% and 103% and 102%; viability, T/C (compound 0.003 µM): 105% and 110% and 111%; viability, T/C (compound 0.00949 µM): 97% and 102% and 112%; viability, T/C (compound 0.03 µM): 99.5% and 104% and 110%; viability, T/C (compound 0.0949 µM): 110% and 101% and 95.2%; viability, T/C (compound 0.3 µM): 111% and 96.2% and 102%; IC50 (curve of compound): > 0.3 µM

Reference: PubChem BioAssay AID1919001 (Molecular Pharmacology Branch, DTP, NCI, 2023)
